{"source": "patent US20260014092A1", "about": "“EXTRACELLULAR VESICLES FROM MICROALGAE, THEIR USE FOR VACCINES AND FOR IMMUNOMODULATION” (AGS THERAPEUTICS SAS, priority 2023, published 2026)", "key": {"[1]": {"tested_on": "DSS-induced acute experimental colitis", "assay": "DSS-induced acute colitis (IBD model): Disease Activity Index (DAI)", "assay_type": "in vivo, C57BL/6 female mice", "parameters": "scale not given here", "conditions": "i.r.", "method": "In mice, the disease can be induced by the treatment with Dextran Sodium Sulfate (DSS) to create a disease model for the evaluation of experimental therapies. Thus, the treatment of mice suffering from DSS-induced acute experimental colitis is a widely used animal model for the evaluation of therapies against the IBD disease. In our case, acute colitis was induced in mice by DSS 3% in drinking water for eight days. […] All handling of animals was conducted carefully to reduce stress to the minimum. All the experiments were performed in compliance with the guidelines of the French Ministry of Agriculture for experiments with laboratory animals.\nAnimals were randomized before treatment group's allocation based on body weight. The disease was induced by administration of DSS in drinking water (3%, w/v, MW: 40000, TdB Consultancy AB) in C57BL/6 female mice at 9 weeks of age. Mice were administered with test compounds either at D3 and D6 (M1, M3 and M5 intrarectal), or daily from D3 to D6 (M2 and M4, per os). Experimental groups were as follows: seven animals per group; a total of 49 mice.\nMice were euthanized at D8; samples were harvested to determine the extent of intestinal inflammation using various quantitative and semi quantitative methods including body weight evolution, clinical score (Disease Activity index; DAI, Table 13, below), large intestine measurement, cytokine analysis in colon and/or ileum tissue (TNFα, TGFβ, IFNα, IFNγ, IL-6 and IL-17A) and intestinal and colon histopathology for inflammation analysis, as follows and as summarized in Table 14, below.\nIn-Life Samples (all groups) • Bodyweight (daily) • Disease Activity Index (DAI) (diarrhea and blood in stool)\nThe life samples were recovered every day: i. body weight, ii. diarrhea, and iii. blood in stool and used to determine the disease activity index (DAI). The results are summarized in Table 33, for each animal in each group for seven consecutive days."}, "[2]": {"conditions": "cited from earlier work"}}, "note": "Values joined by “and” are separate entries in the source; they are usually repeats but may differ in a detail not shown here. Equal values may be shown once. In the oligonucleotide strings, read from the 5' end, every base follows the letter of its sugar. An asterisk marks phosphorothioate; unmarked linkages are phosphodiester. Other units and linkages are bracketed, terminal groups are in braces. A string of capitals states the bases alone. d = 2'-deoxy (DNA)"}
{"compound": "ODN 1585 (DNA dG*dG*dGdGdTdCdAdAdCdGdTdTdGdAdG*dG*dG*dG*dG*dG) [ODNA]", "values": [{"measurement": "Cumulative score (DAI), Mean", "setting": "[1]; D 0, group mean, D 3 and D 6, 50 μg/mouse", "value": 0.00}, {"measurement": "Cumulative score (DAI)", "setting": "[1]; D 0, individual mice, D 3 and D 6, 50 μg/mouse", "value": 0}, {"measurement": "Cumulative score (DAI), Mean", "setting": "[1]; D 1, group mean, D 3 and D 6, 50 μg/mouse", "value": 0.14}, {"measurement": "Cumulative score (DAI)", "setting": "[1]; D 1, individual mice, D 3 and D 6, 50 μg/mouse", "value": "0 (6×) and 1"}, {"measurement": "Cumulative score (DAI), Mean", "setting": "[1]; D 2, group mean, D 3 and D 6, 50 μg/mouse", "value": 0.14}, {"measurement": "Cumulative score (DAI)", "setting": "[1]; D 2, individual mice, D 3 and D 6, 50 μg/mouse", "value": "0 (6×) and 1"}, {"measurement": "Cumulative score (DAI), Mean", "setting": "[1]; D 3, group mean, D 3 and D 6, 50 μg/mouse", "value": 0.14}, {"measurement": "Cumulative score (DAI)", "setting": "[1]; D 3, individual mice, D 3 and D 6, 50 μg/mouse", "value": "0 (6×) and 1"}, {"measurement": "Cumulative score (DAI), Mean", "setting": "[1]; D 4, group mean, D 3 and D 6, 50 μg/mouse", "value": 1.71}, {"measurement": "Cumulative score (DAI)", "setting": "[1]; D 4, individual mice, D 3 and D 6, 50 μg/mouse", "value": "2 and 5 and 3 and 1 (2×) and 0 (2×)"}, {"measurement": "Cumulative score (DAI), Mean", "setting": "[1]; D 5, group mean, D 3 and D 6, 50 μg/mouse", "value": 4.14}, {"measurement": "Cumulative score (DAI)", "setting": "[1]; D 5, individual mice, D 3 and D 6, 50 μg/mouse", "value": "2 and 8 and 4 (2×) and 3 (2×) and 5"}, {"measurement": "Cumulative score (DAI), Mean", "setting": "[1]; D 6, group mean, D 3 and D 6, 50 μg/mouse", "value": 6.14}, {"measurement": "Cumulative score (DAI)", "setting": "[1]; D 6, individual mice, D 3 and D 6, 50 μg/mouse", "value": "7 (4×) and 6 (2×) and 3"}, {"measurement": "Cumulative score (DAI), Mean", "setting": "[1]; D 7, group mean, D 3 and D 6, 50 μg/mouse", "value": 6.71}, {"measurement": "Cumulative score (DAI)", "setting": "[1]; D 7, individual mice, D 3 and D 6, 50 μg/mouse", "value": "8 (3×) and 7 (2×) and 6 and 3"}]}
{"compound": "cobitolimob (DNA GGAACAGTTCGTCCATGGC; listed as DNA, chemistry not given here) [ODNX]", "values": [{"measurement": "Cumulative score (DAI), Mean", "setting": "[1]; D 0, group mean, D 3 and D 6, 100 μg/mouse", "value": 0.00}, {"measurement": "Cumulative score (DAI)", "setting": "[1]; D 0, individual mice, D 3 and D 6, 100 μg/mouse", "value": 0}, {"measurement": "Cumulative score (DAI), Mean", "setting": "[1]; D 1, group mean, D 3 and D 6, 100 μg/mouse", "value": 0.00}, {"measurement": "Cumulative score (DAI)", "setting": "[1]; D 1, individual mice, D 3 and D 6, 100 μg/mouse", "value": 0}, {"measurement": "Cumulative score (DAI), Mean", "setting": "[1]; D 2, group mean, D 3 and D 6, 100 μg/mouse", "value": 0.14}, {"measurement": "Cumulative score (DAI)", "setting": "[1]; D 2, individual mice, D 3 and D 6, 100 μg/mouse", "value": "0 (6×) and 1"}, {"measurement": "Cumulative score (DAI), Mean", "setting": "[1]; D 3, group mean, D 3 and D 6, 100 μg/mouse", "value": 0.57}, {"measurement": "Cumulative score (DAI)", "setting": "[1]; D 3, individual mice, D 3 and D 6, 100 μg/mouse", "value": "0 (5×) and 3 and 1"}, {"measurement": "Cumulative score (DAI), Mean", "setting": "[1]; D 4, group mean, D 3 and D 6, 100 μg/mouse", "value": 2.43}, {"measurement": "Cumulative score (DAI)", "setting": "[1]; D 4, individual mice, D 3 and D 6, 100 μg/mouse", "value": "5 and 3 (2×) and 0 (2×) and 2 and 4"}, {"measurement": "Cumulative score (DAI), Mean", "setting": "[1]; D 5, group mean, D 3 and D 6, 100 μg/mouse", "value": 4.14}, {"measurement": "Cumulative score (DAI)", "setting": "[1]; D 5, individual mice, D 3 and D 6, 100 μg/mouse", "value": "4 (3×) and 5 (2×) and 1 and 6"}, {"measurement": "Cumulative score (DAI), Mean", "setting": "[1]; D 6, group mean, D 3 and D 6, 100 μg/mouse", "value": 5.71}, {"measurement": "Cumulative score (DAI)", "setting": "[1]; D 6, individual mice, D 3 and D 6, 100 μg/mouse", "value": "7 and 6 and 4 and 5 (2×) and 3 and 10"}, {"measurement": "Cumulative score (DAI), Mean", "setting": "[1]; D 7, group mean, D 3 and D 6, 100 μg/mouse", "value": 7.43}, {"measurement": "Cumulative score (DAI)", "setting": "[1]; D 7, individual mice, D 3 and D 6, 100 μg/mouse", "value": "10 (2×) and 7 and 5 and 6 (2×) and 8"}]}
{"compound": "CCCCCCCCCCCCCCCCCCCCCC[N+]1=C(/C=C/C=C2/N(CCCCCCCCCCCCCC)c3ccccc3C2(C)C)C(C)(C)c2ccccc21.[I-]", "note": "[PKH26]", "values": [{"measurement": "in vivo half-life", "setting": "[2]", "value": "over 100 days"}]}
